# Reference: ChEMBL document CHEMBL2434843, “Synthesis and evaluation of α-ketotriazoles and α,β-diketotriazoles as inhibitors of Mycobacterium tuberculosis” (Eur J Med Chem, 2013)
# Experiments:
# Format in all cases: functional
# [1] = system: Mycobacterium tuberculosis; assay: Antitubercular activity against multidrug-resistant Mycobacterium tuberculosis IC1 assessed as growth inhibition by BACTEC MGIT 960 method
# [2] = system: Mycobacterium tuberculosis; assay: Antitubercular activity against multidrug-resistant Mycobacterium tuberculosis IC3 assessed as growth inhibition by BACTEC MGIT 960 method
# [3] = system: Mycobacterium tuberculosis; assay: Antitubercular activity against multidrug-resistant Mycobacterium tuberculosis IC2 assessed as growth inhibition by BACTEC MGIT 960 method
Compound,MIC [1],MIC [2],MIC [3]
O=C(C(=O)c1ccc(Cl)cc1Cl)c1cn(Cc2ccccc2)nn1,7.6 µM,7.6 µM,7.6 µM
COc1ccc(C(=O)C(=O)c2cn(Cc3ccccc3)nn2)cc1,6.9 µM,6.9 µM,6.9 µM
